The subject of data set [1] is Lewis lung carcinoma (LLC) tumors. Nature of the data set: LLC tumor-bearing mice treated with CPT-11 six times over 2 weeks. Type of data set: in vivo, mouse. How it is done: For tumor experiments, 4 million LLC cells [American Type Culture Collection (ATCC)] were injected into the flanks of WT and Puma KO mice and allowed to grow for 11 days. Mice were then treated with CPT-11 (200 mg/kg) three times per week for 2 weeks. PUMAi (10 mg/kg) or vehicle control was administered by intraperitoneal injection 2 hours before and 20 hours after each dose of CPT-11. Mice were sacrificed 4 hours after the final CPT-11 treatment.
For tumor experiments, mice were treated with CPT-11 three times per week for two weeks. Mice receiving PUMAi were treated 2 hours before each dose of CPT-11 and 20 hours after. Mice were sacrificed four hours after the final CPT-11 treatment (FIG. 13A). Tumor volumes were measured with calipers and calculated as volume=(length x width2)/2. Mice were 7-9 weeks old, and roughly equal numbers of male and female animals were used. To account for variations in starting body weights, the values in FIGS. 3 and 4 are expressed as a percentage of the respective mouse weights at the time of the first CPT-11 treatment.
(§1) Immediately after sacrifice, about 10-cm portion of the jejunum was removed and carefully rinsed with ice-cold saline. The tissue was opened longitudinally and tacked to a foam board for fixation overnight in 10% formalin. Tissues were then rolled up into “swiss rolls” and embedded in paraffin. For tumor analysis, flank tumors were removed, measured, and cut into pieces for either formalin fixation or flash freezing in a dry ice/ethanol bath. Tissue sections (5 um) were deparaffinized and rehydrated through graded ethanols. Histological analysis was performed by hematoxylin and eosin (H&E) staining.
Average villus height was determined by measuring 40 to 50 villi from different locations of the small intestine, from at least three different animals per group, and reported as means A} SEM. Measurements were made from the top of the crypt to the tip of the villus using 100 Å˜H&E images and SPOT 5.1 Advanced software (Diagnostic Instruments Inc.).
Neutrophil IF. Sections were prepared as described above. […] Sections were then incubated with AlexaFluor-594 goat antirat secondary antibodies (1:200; A11007; Invitrogen) for 1 hour at room temperature and counterstained with VectaShield plus DAPI.

The test system of data set [2] is primary human colonic organoids. As to the kind of experiment: Human colonic organoids treated with CPT. Type of data set: cell-based. The note with it: PUMAi 50 uM. The procedure:
(§2) Fresh mucosal scrapings from 10 cm of jejunum were washed in cold PBS, resuspended in 700 ul of RNA lysis buffer, and homogenized in a Dounce homogenizer. RNA was isolated using the Quick-RNA MiniPrep kit (Zymo Research) according to the manufacturer's instructions. Organoids were freed from Matrigel using Cell Recovery Solution (Corning), as described in, before RNA isolation. Complementary DNA was generated from 2 ug of total RNA from mice or ˜100 ng of total RNA from colonic organoids and was pooled from three mice or three wells of organoid culture per treatment group using SuperScript III reverse transcriptase (Invitrogen) and random primers. Gene expression was normalized to Gapdh. Representative results are shown, and similar results were obtained in at least three independent experiments. Details on mouse and human primers are found in Tables 1 and 2.
Surgically resected intestinal tissues were obtained from Health Science Tissue Bank (HSTB) of UPMC Shadyside Hospital and UPMC Presbyterian Hospital. All samples were obtained with informed consent and approval by the University of Pittsburgh Ethics Committee. Human normal colon crypt isolation and organoid development were performed as previously described with modifications. The complete culture medium for normal human colon organoids contains advanced DMEM/F12 (12634-010, Invitrogen) supplemented with 1× penicillin/streptomycin (15140-122, Invitrogen), 10 mM HEPES (15630-106, Invitrogen), 2 mM GlutaMAX (Invitrogen), 1× B27 (17504-044, Invitrogen), 1XN2 (17502-048, Invitrogen), 1 mM N-Acetylcysteine (A0737, Sigma), 10 nM [leu-15]-Gastrin (G9145, Sigma), 10 mM nicotinamide (N0636, Sigma), 10 μM SB202190 (S7067, Sigma), 50 ng/ml recombinant murine EGF (315-09, Peprotech), 0.5 μM A83-01 (2939, Tocris Bioscience), 10 nM PGE2 (22-961-0, Tocris Bioscience), and 50% WRN-conditioned medium (vol/vol). Freshly isolated crypts were cultured with the same medium plus 10 μM Y-27632 and 100 μg/ml Primocin. Organoids 100 p.m or greater in diameter were enumerated on day 6 after CPT treatment. […]

Another data set deals with C57BL/6J mice. Nature of the data set: Survival and GI injury after three daily doses of CPT-11. It is filed as in vivo, mouse.
Description: as §1
; CPT-11). […] . […] BH3-only proteins BIM and NOXA were not induced by CPT-11 or affected by Puma KO (FIG. 8F). […] . […] . Histological analysis confirmed lethal GI injury in WT and p53 KO mice on day 5, showing severe loss of crypts and shortening of villi, which was abrogated in Puma KO mice (FIG. 1F).

The subject of data set [3] is colon cancer cell line HCT-116. Nature of the data set: PUMA-induced apoptosis inhibition in HCT-116.
Description: PUMAi was added to cells at 25 uM at the same time as CPT.
A minimum of 300 cells per treatment were analyzed in triplicate.
Another data set concerns mouse colonic organoids. Nature of the data set: Mouse colonic organoids treated with CPT. Type of data set: cell-based. The note with it: PUMAi 50 uM. How it is done: as §2
Mouse crypt isolation, organoid development, and passage were done as previously described with minor modifications. In brief, the complete culture medium for mouse intestinal organoids was slightly modified as follows: advanced Dulbecco's modified Eagle medium (DMEM)/F12 (12634-010, Invitrogen) was supplemented with 100 units/ml penicillin/0.1 mg/ml streptomycin (Invitrogen), 2 mM GlutaMAX (ThermoFisher), 20% (vol/vol) FBS (S11150, ATLANTA Biologicals), and WRN-conditioned medium (50%, vol/vol). Freshly isolated crypts were cultured with the same medium plus 10 μM Y-27632 (Y0503 Sigma) and 100 μg/ml Primocin (ant-pm-1, InvivoGen). For CPT and PUMAi treatment, intestinal organoids were passaged and re-plated in 25 μL of Matrigel (356231, Corning) in 24-well plates 24 hours before treatment with CPT (0.5 μM, C9911, Sigma-Aldrich) and PUMAi (50 μM) for 24 hours. The CPT-containing medium was replaced with complete medium containing PUMAi (50 μM). Three groups (treatment control, CPT only, and CPT plus PUMAi) were set up. Organoids 100 μm or greater in diameter were enumerated on day 6 after CPT treatment. Similar results were obtained from at least three independent experiments with triplicate wells in each experiment.

These results are taken from patent US20220125746A1, “METHOD OF PREVENTING OR TREATING TREATMENT-INDUCED GASTROINTESTINAL INJURY” (priority 2019, published 2022).

Structures can show the parent of a compound that is named as a salt.

With `OCCN1CCN(CC(O)COc2ccc3ccccc3c2)CC1` (stereo not shown) [PUMAi, 1-[4-(2-hydroxyethyl)-1-piperazinyl]-3-(2-naphthyloxy)-2-propanol dihydrochloride], in data set [1] (PUMAi 10 mg/kg 2 h before and 20 h after each CPT-11 dose), the “CPT-11-induced weight loss, intestinal damage and lethality” value is reported as “highly resistant”. In data set [1] (PUMAi 10 mg/kg 2 h before and 20 h after each CPT-11 dose, vs vehicle group), the “tumor response to CPT-11” value was “comparable tumor response”. Besides, the “% mice compieting treatment” value in data set [1] (WT mice, LLC tumor experiments) is on record as 100% (5/5). Moreover, the “grooming and physical activity” value in data set [1] (daily inspections throughout the study) was “improved grooming and physical activity”. In addition, in data set [2] (24 h after CPT), the “CPT-induced caspase-3 activation” value is recorded as “inhibited CPT-induced caspase-3 activation”; the “CPT-induced expression of WNT and NOTCH targets” value was “suppressed CPT-induced expression of WNT and NOTCH targets”. Besides, the “organoid growth after CPT” value in data set [2] (CPT 500 nM 24 h, day 6) is on record as “enhanced organoid growth”. Further, the “survival at the LD90 of CPT-11” value with C57BL/6J mice (CPT-11 215 mg/kg per day x3, PUMAi 10 mg/kg 2 h before each dose, WT mice) was found to be 70%. Moreover, in the data set with C57BL/6J mice (CPT-11 180, 215, 250 mg/kg/day x3, PUMAi 10 mg/kg), the CPT-11-induced lethality result is “decreased CPT-11-induced lethality at three different doses”. Besides, in the data set on C57BL/6J mice (day 5, CPT-11 215 mg/kg per day x3, compared to WT mice), the “GI injury by histological analysis” value was “reduced GI injury”. In data set [3], the “Apoptosis inhibition of HCT-116” value came to 17%. Besides, the “CPT-induced activation of WNT and NOTCH targets (Lgr5, CD44, Olfm4)” value in the data set with mouse colonic organoids (24 h after CPT) was “suppressed CPT-induced activation of WNT and NOTCH targets”. In the data set on mouse colonic organoids (CPT 500 nM 24 h), the “CPT-induced growth suppression and caspase-3 activation” value is recorded as “strongly blocked”.
